Test results as given in patent US9655849B2, “Solid particulate compositions comprising coenzyme Q10” (Particle Dynamics International, LLC, priority 2011, dated 2017).
Where “and” joins values, the source holds several entries; their conditions need not be identical. Identical values can stand only once.

Assay: CoQ10 Starting Material Particle Size Analysis, laser diffraction, dry dispersion
Assay type: physicochemical
Description: This example details the results of particle size analysis for a commercially available CoQ10 starting material. Dry samples of KANEKA Q10 powder were analyzed using laser diffraction to obtain a measurement of particle size characteristics.
Particle size analysis of the CoQ10 starting material was conducted using a dry dispersion method. A […] HELOS equipped with a RODOS dispersion module and a R3 lens was employed for the analysis. Prior to the analysis the sample was evaluated using optical microscopy. Particles were well dispersed and ranged in size from approximately 5 microns to approximately 90 microns.

[1] = dry powder, Avg. of analyses A-F
[2] = dry powder, single analyses A-F

- x10, Particulate Size Distribution (Number Basis) [1]: 0.55 μm
- x10, Particulate Size Distribution (Volume Basis) [1]: 4.76 μm
- x50, Particulate Size Distribution (Number Basis) [1]: 0.77 μm
- x50, Particulate Size Distribution (Volume Basis) [1]: 15.16 μm
- x90, Particulate Size Distribution (Number Basis) [1]: 1.30 μm
- x90, Particulate Size Distribution (Volume Basis) [1]: 40.52 μm
- x95, Particulate Size Distribution (Number Basis) [1]: 1.78 μm
- x95, Particulate Size Distribution (Volume Basis) [1]: 50.83 μm
- x99, Particulate Size Distribution (Number Basis) [1]: 5.11 μm
- x99, Particulate Size Distribution (Volume Basis) [1]: 71.32 μm
- x10, Particulate Size Distribution (Number Basis) [2]: 0.55 μm
- portion of the total volume attributable to particulates greater than 15 μm in diameter (volume basis): more than 50%
SMILES: COC1=C(OC)C(=O)C(C/C=C(\C)CC/C=C(\C)CC/C=C(\C)CC/C=C(\C)CC/C=C(\C)CC/C=C(\C)CC/C=C(\C)CC/C=C(\C)CC/C=C(\C)CCC=C(C)C)=C(C)C1=O [KANEKA Q10]
- x10, Particulate Size Distribution (Volume Basis) [2]: 4.99 μm and 5.21 μm and 4.63 μm and 4.16 μm and 4.77 μm and 4.80 μm
- x50, Particulate Size Distribution (Volume Basis) [2]: 15.36 μm and 15.89 μm and 15.04 μm and 14.37 μm and 15.15 μm
- x90, Particulate Size Distribution (Volume Basis) [2]: 40.65 μm and 41.41 μm and 40.36 μm and 39.46 μm and 40.75 μm and 40.46 μm
- x95, Particulate Size Distribution (Number Basis) [2]: 1.79 μm and 1.74 μm and 1.77 μm and 1.80 μm and 1.78 μm
- x95, Particulate Size Distribution (Volume Basis) [2]: 50.84 μm and 51.76 μm and 50.62 μm and 49.96 μm and 51.11 μm and 50.68 μm
- x99, Particulate Size Distribution (Number Basis) [2]: 5.30 μm and 5.13 μm and 4.98 μm and 4.93 μm and 5.14 μm and 5.20 μm
- x99, Particulate Size Distribution (Volume Basis) [2]: 71.36 μm and 71.75 μm and 71.16 μm and 70.79 μm and 71.66 μm and 71.20 μm
